Measured values: patent US12594277B2, “Macrocyclic ULK1/2 inhibitors” (SALK INSTITUTE FOR BIOLOGICAL STUDIES, priority 2020, dated 2026)

Legend:
[1] = molecular target: T1, NanoLuc-ULK1 fusion in HEK293T cells (Homo sapiens, UniProt O75385); experiment: ULK1 NanoBRET assay; type: cell-based; conditions: HEK293T transfected with NanoLuc-ULK1 Fusion Vector, Tracer K-5, 2 h incubation
T1 construct: host or cells: HEK293T
T1 sequence (O75385 1-1050): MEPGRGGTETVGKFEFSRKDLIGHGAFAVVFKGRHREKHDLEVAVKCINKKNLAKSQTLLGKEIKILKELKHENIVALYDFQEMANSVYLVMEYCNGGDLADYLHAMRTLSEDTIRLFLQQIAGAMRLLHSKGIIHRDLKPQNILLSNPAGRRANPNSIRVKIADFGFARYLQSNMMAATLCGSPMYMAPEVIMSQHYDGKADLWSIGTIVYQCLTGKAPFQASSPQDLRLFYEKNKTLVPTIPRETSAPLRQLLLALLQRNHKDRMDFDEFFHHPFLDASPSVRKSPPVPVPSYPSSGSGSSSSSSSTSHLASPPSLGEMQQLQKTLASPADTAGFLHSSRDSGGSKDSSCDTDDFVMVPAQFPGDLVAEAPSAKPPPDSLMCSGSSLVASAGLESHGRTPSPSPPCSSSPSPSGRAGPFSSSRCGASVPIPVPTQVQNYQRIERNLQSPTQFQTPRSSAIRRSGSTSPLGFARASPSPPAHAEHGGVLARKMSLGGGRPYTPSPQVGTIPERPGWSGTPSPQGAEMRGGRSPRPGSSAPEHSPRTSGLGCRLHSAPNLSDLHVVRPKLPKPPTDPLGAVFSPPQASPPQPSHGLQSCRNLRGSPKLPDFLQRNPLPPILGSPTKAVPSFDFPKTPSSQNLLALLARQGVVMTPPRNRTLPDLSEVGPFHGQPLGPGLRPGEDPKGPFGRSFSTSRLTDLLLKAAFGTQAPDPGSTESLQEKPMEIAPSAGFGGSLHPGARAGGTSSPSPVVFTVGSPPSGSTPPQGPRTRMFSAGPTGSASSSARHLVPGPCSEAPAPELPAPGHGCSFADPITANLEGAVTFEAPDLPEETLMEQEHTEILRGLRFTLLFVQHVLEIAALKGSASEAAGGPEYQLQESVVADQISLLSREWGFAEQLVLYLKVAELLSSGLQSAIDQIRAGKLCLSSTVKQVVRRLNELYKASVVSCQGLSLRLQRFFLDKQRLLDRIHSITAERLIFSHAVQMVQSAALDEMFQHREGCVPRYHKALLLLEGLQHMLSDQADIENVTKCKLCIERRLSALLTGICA
Method: IC50s were also measured by ULK1 NanoBRET assay according to the following protocol: Human embryonic kidney cells (HEK293T) were transfected with NanoLuc®-ULK1 Fusion Vector (Promega #NV2211) using jetPRIME transfection reagent (Polyplus Transfection #114-15). Following 24 h, cells were trypsinized and resuspended in Opti-MEM® I (1×), Reduced Serum Medium (Gibco, #11058-021). Approximately, 7,000 cells per well (in 34 μL total volume) were replated into non-binding surface 384 well plates. Complete NanoBRET 20× Tracer K-5 reagent was prepared according to the manufacturer's directions and 2 μL were added to each well of the 384 plate (assay plate). The assay plate was mixed on an orbital shaker for 15 seconds at 700 rpm. Compounds were serially diluted at 200× final concentration in […], then diluted to 10× final concentration in assay media (Opti-MEM® I, Reduced Serum Medium). Next, 4 μL 10× test compounds were added to each well of the assay plate, followed by mixing at 700 rpm for 15 seconds. The assay plate was incubated for 2 h in a 37 C incubator with […] and then equilibrated to RT for 15 min. The 3× Complete Substrate plus Inhibitor Solution was prepared according to the manufacturer's directions with a concentration of Extracellular NanoLuc® Inhibitor of 60 μM to be used at a working concentration of 20 μM. The 3× Complete Substrate plus Inhibitor Solution was mixed and 20 μL per well was added to the assay plate and incubated at RT for 2-3 min. Donor emission wavelength (450 nm) and acceptor emission wavelength (610 nm) were measured using an assay compatible luminometer (see manufacturer's specifications).

[2] = molecular target: T2, recombinant human ULK1 protein (1-649) (Homo sapiens, UniProt O75385); experiment: ULK1 inhibition assay (ADP-Glo); type: biochemical; conditions: 2 ug/mL ULK1, 80 ug/mL myelin basic protein, 25 uM ATP, assessed after one hour
T2 construct: recombinant human ULK1 protein (1-649, SignalChem #U01-11G); purchased SignalChem U01-11G
T2 sequence (O75385 1-649): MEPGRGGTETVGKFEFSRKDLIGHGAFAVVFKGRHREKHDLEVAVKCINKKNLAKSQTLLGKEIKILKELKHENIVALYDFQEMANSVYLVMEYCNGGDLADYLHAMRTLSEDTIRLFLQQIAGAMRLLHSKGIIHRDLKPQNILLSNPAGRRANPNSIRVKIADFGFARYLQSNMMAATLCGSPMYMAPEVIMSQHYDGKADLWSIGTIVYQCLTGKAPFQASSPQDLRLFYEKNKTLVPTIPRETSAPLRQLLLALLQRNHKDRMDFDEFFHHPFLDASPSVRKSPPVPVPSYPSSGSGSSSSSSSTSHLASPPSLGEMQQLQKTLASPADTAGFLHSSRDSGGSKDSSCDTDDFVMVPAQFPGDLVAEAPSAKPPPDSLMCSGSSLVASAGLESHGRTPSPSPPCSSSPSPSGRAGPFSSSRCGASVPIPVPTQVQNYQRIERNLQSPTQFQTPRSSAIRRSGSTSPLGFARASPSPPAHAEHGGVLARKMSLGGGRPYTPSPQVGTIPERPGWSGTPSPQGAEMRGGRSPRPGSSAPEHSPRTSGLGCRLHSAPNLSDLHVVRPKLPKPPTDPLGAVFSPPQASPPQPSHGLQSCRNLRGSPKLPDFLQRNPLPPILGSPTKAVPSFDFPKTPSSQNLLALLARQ
Method: IC50s measured by ADP-Glo assay are represented nM, with A representing IC50<20 nM, B representing IC50>20 nM. NT indicates the compound was not tested. ULK1 inhibition assays were performed in a 5 uL reaction volume containing 2 ug/mL recombinant human ULK1 protein (1-649, SignalChem #U01-11G) and 80 ug/mL myelin basic protein (MBP, Sigma-Aldrich #M1891) in the presence of 25 uM ATP (Sigma-Aldrich A7699). ULK 1 inhibition was assessed after one hour. Compounds were tested in triplicate in a 16-dose IC50 mode with 3-fold serial dilution and a starting dose of 30 uM. Staurosporine, a non-selective protein kinase inhibitor, was used in the assay as a positive control. Three separate experiments were carried out.

IC50 [1] | IC50 [2] | Structure (SMILES)
> 1000 nM | < 20 nM | CNC(=O)c1cc2ccc1Nc1nc(ncc1C(F)(F)F)Nc1ccc(c(OC)c1)OCCCCCO2 [Compound 1, 1^3-Methoxy-N-methyl-3^5-(trifluoromethyl)-6,12-dioxa-2,4-diaza-3(2,4)-pyrimidina-1,5(1,4)-dibenzenacyclododecaphane-5^2-carboxamide]
 | > 20 nM | C=CCCOc1ccc(Nc2nc(Nc3ccc(OCC=C)c(OC)c3)ncc2C(F)(F)F)c(C(=O)NC)c1 [Compound 2, 2-((2-((4-(Allyloxy)-3-methoxyphenyl)amino)-5-(trifluoromethyl)pyrimidin-4-yl)amino)-5-(but-3-en-1-yloxy)-N-methylbenzamide]
< 1000 nM | > 20 nM | CNC(=O)c1cc2ccc1Nc1nc(ncc1C(F)(F)F)Nc1ccc(c(OC)c1)OC/C=C/CCO2 [Compound 3, (E)-1^3-methoxy-N-methyl-3^5-(trifluoromethyl)-6,12-dioxa-2,4-diaza-3(2,4)-pyrimidina-1,5(1,4)-dibenzenacyclododecaphan-9-ene-5^2-carboxamide]
< 1000 nM | > 20 nM | CNC(=O)c1cc2ccc1Nc1nc(ncc1C(F)(F)F)Nc1ccc(c(OC)c1)OC/C=C\CCO2 [Compound 4, (Z)-1^3-methoxy-N-methyl-3^5-(trifluoromethyl)-6,12-dioxa-2,4-diaza-3(2,4)-pyrimidina-1,5(1,4)-dibenzenacyclododecaphan-9-ene-5^2-carboxamide]
> 1000 nM | > 20 nM | C=CCCCOc1ccc(Nc2nc(Nc3ccc(OCC=C)c(OC)c3)ncc2C(F)(F)F)c(C(=O)NC)c1 [Compound 5, 2-((2-((4-(Allyloxy)-3-methoxyphenyl)amino)-5-(trifluoromethyl)pyrimidin-4-yl)amino)-N-methyl-5-(pent-4-en-1-yloxy)benzamide]
< 1000 nM | < 20 nM | CNC(=O)c1cc2ccc1Nc1nc(ncc1C(F)(F)F)Nc1ccc(c(OC)c1)OC/C=C/CCCO2 [Compound 6, (E/Z)-1^3-Methoxy-N-methyl-3^5-(trifluoromethyl)-6,13-dioxa-2,4-diaza-3(2,4)-pyrimidina-1,5(1,4)-dibenzenacyclotridecaphan-10-ene-5^2-carboxamide]
 | < 20 nM | CNC(=O)c1cc2ccc1Nc1nc(ncc1C(F)(F)F)Nc1ccc(c(OC)c1)OCCCCCCO2 [Compound 7, 1^3-Methoxy-N-methyl-3^5-(trifluoromethyl)-6,13-dioxa-2,4-diaza-3(2,4)-pyrimidina-1,5(1,4)-dibenzenacyclotridecaphane-5^2-carboxamide]
 | < 20 nM | C=CCCOc1ccc(Nc2nc(Nc3ccc(OC)c(OCC=C)c3)ncc2C(F)(F)F)c(C(=O)NC)c1 [Compound 8, 2-((2-((3-(Allyloxy)-4-methoxyphenyl)amino)-5-(trifluoromethyl)pyrimidin-4-yl)amino)-5-(but-3-en-1-yloxy)-N-methylbenzamide]
< 1000 nM | < 20 nM | CNC(=O)c1cc2ccc1Nc1nc(ncc1C(F)(F)F)Nc1ccc(OC)c(c1)OC/C=C/CCO2 [Compound 9, (E/Z)-1^4-Methoxy-N-methyl-3^5-(trifluoromethyl)-6,12-dioxa-2,4-diaza-3(2,4)-pyrimidina-1(1,3),5(1,4)-dibenzenacyclododecaphan-9-ene-5^2-carboxamide]
> 1000 nM | < 20 nM | CNC(=O)c1cc2ccc1Nc1nc(ncc1C(F)(F)F)Nc1ccc(OC)c(c1)OCCCCCO2 [Compound 10, 1^4-Methoxy-N-methyl-3^5-(trifluoromethyl)-6,12-dioxa-2,4-diaza-3(2,4)-pyrimidina-1(1,3), 5(1,4)-dibenzenacyclododecaphane-5^2-carboxamide]
 | > 20 nM | C=CCCOc1ccc(Nc2nc(Nc3ccc(OCC=C)c(OC)c3)ncc2Br)c(C(=O)NC)c1 [Compound 11]
> 1000 nM | > 20 nM | CNC(=O)c1ccc2cc1Nc1nc(ncc1C(F)(F)F)Nc1ccc(OC)c(c1)OC/C=C\CCCO2 [Compound 12, (E)-1^4-methoxy-N-methyl-35-(trifluoromethyl)-6,13-dioxa-2,4-diaza-3(2,4)-pyrimidina-1,5(1,3)-dibenzenacyclotridecaphan-10-ene-5^6-carboxamide]
> 1000 nM | > 20 nM | CNC(=O)c1ccc2cc1Nc1nc(ncc1C(F)(F)F)Nc1ccc(OC)c(c1)OC/C=C/CCCO2 [Compound 13, (Z)-1^4-methoxy-N-methyl-35-(trifluoromethyl)-6,13-dioxa-2,4-diaza-3(2,4)-pyrimidina-1,5(1,3)-dibenzenacyclotridecaphan-10-ene-5^6-carboxamide]
> 1000 nM | > 20 nM | CNC(=O)c1ccc2cc1Nc1nc(ncc1C(F)(F)F)Nc1ccc(OC)c(c1)OCCCCCCO2 [Compound 14, 1^4-Methoxy-N-methyl-3^5-(trifluoromethyl)-6,13-dioxa-2,4-diaza-3(2,4)-pyrimidina-1,5(1,3)-dibenzenacyclotridecaphane-5^6-carboxamide]
> 1000 nM | > 20 nM | CNC(=O)c1ccc2cc1Nc1nc(ncc1C(F)(F)F)Nc1ccc(c(OC)c1)OC/C=C/CCCO2 [Compound 15, (E)-5^3-methoxy-N-methyl-3^5-(trifluoromethyl)-6,13-dioxa-2,4-diaza-3(4,2)-pyrimidina-1(1,3),5(1,4)-dibenzenacyclotridecaphan-8-ene-1^6-carboxamide]
> 1000 nM | > 20 nM | CNC(=O)c1ccc2cc1Nc1nc(ncc1C(F)(F)F)Nc1ccc(c(OC)c1)OC/C=C\CCCO2 [Compound 16, (Z)-5^3-methoxy-N-methyl-3^5-(trifluoromethyl)-6,13-dioxa-2,4-diaza-3(4,2)-pyrimidina-1(1,3),5(1,4)-dibenzenacyclotridecaphan-8-ene-1^6-carboxamide]
